Broadly, the Ki is the equilibrium dissociation constant of an inhibitor or competing ligand from its target. Read a low Ki as a stronger hold on the target.

The subject of one experiment is male mice B6 Lep ob/ob. Kind of experiment: In-vivo testing for regulation of triglycerides in blood, obese mice on high fat diet. The settings on record: for triglicerides blood levels (result in words): obese mice fed with high fat diet. The source says:
The study was done using six weeks old male mice B6 Lep ob/ob, obtained from Charles River (France). Mice were divided in 3 groups : I (control), II (vehicle), III (example 0).
The animals of the group I received the standard diet (D-12450B, Research Diets, NJ, USA).
The animals of the groups II and III were fed with a High Fat Diet (D-12492, Research Diets, NJ, USA), in both cases for 7 weeks (References 1 and 2).
The animals of the groups III were fed with a High Fat Diet (D-12492, Research Diets, NJ, USA), in both cases for 7 weeks (References 1 and 2).
At the end of the feeding period of 7 weeks, it was started the treatment period (14 days): Group II mice received the vehicle (10 ml/kg/day, po, of the aqueous solution of acacia gum, 5% WN). Group III was administered with 30 mg/kg/day, po, of the inventive compound 5-(4-chlorophenyl)-1-(2,4-dichlorophenyl)-4,5-dihydro-pyrazole-3-carboxylic acid according to Example 0. Group I didn't received any treatment. The three groups of mice had the same diet than in the previous period.
At the end of the 14 days period of treatment, the blood levels of triglicerides of the animals were determined.
The analysis of the whole blood samples was done using test strips "Lipid panel" and the photometric Analyzer Cardio-Check Test System, from PA Instruments Polymer Technology Systems Indianapolis, IN-46268, USA (Distributed in Spain by Novalab Iberica S.A.L, Madrid, Spain).

The target of a further experiment is T1, CB2-Receptor (Homo sapiens, UniProt P34972).
T1 construct: purchased Receptor Biology, Inc
T1 sequence (P34972 whole entry): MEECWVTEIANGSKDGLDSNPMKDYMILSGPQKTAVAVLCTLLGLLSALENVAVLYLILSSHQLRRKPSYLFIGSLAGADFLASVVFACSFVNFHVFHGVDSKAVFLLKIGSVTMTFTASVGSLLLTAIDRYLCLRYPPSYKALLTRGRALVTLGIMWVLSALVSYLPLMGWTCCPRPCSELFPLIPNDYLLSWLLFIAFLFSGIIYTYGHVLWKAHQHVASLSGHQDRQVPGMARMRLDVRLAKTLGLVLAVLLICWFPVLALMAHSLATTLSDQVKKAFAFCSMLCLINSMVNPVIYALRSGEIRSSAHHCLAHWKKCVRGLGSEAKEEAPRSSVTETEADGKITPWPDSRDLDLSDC
The experiment in a line: In-vitro determination of affinity to CB2 receptor (radioligand [3H]-CP55940). The experiment is classed as binding. The protocol:
(§1) The in-vitro determination of the affinity of the inventive substituted pyrazoline compounds to CB1/CB2-Rezeptors is carried out as described in the publication of Ruth A. Ross, Heather C. Brockie et al., "Agonist-inverse agonist characterization at CB1 and CB2 cannabinoid receptors of L-759633, L759656 and AM630", British Journal of Pharmacology, 126, 665-672, (1999), whereby the transfected human CB1 and CB2 receptors of Receptor Biology, Inc. are used. The radioligand used for both receptors is [^3H]-CP55940. The respective parts of the description is hereby incorporated by reference and forms part of the present disclosure.
(§2) The affinity of the inventive substituted pyrazoline compounds to CB1/CB2 receptors was determined as described above.

A further experiment concerns the target T2, CB1-Receptor (Homo sapiens, UniProt P21554).
T2 construct: purchased Receptor Biology, Inc
The experiment in a line: In-vitro determination of affinity to CB1 receptor (radioligand [3H]-CP55940). The experiment is classed as binding. The procedure:
as §1, §2

SMILES strings stand for the structures.

T2 sequence (P21554 whole entry): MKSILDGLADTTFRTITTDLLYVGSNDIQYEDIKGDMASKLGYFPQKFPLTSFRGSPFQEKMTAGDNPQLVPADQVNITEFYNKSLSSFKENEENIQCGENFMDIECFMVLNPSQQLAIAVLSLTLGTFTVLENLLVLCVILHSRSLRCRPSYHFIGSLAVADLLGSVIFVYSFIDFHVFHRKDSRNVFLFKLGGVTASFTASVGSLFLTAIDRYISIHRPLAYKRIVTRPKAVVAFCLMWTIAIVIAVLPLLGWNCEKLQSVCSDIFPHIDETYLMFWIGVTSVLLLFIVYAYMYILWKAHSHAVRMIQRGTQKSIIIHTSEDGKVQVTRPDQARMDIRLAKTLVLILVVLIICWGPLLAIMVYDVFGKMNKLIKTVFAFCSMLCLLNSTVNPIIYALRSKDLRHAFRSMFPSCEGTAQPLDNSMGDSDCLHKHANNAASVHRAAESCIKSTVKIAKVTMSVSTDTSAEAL

With `O=C(O)C1=NN(c2ccc(Cl)cc2Cl)C(c2ccc(Cl)cc2)C1` (stereo not shown) [Example 0, 5-(4-chlorophenyl)-1-(2,4-dichlorophenyl)-4,5-dihydro-pyrazole-3-carboxylic acid], in the experiment with male mice B6 Lep ob/ob (High Fat diet, 30 mg/kg/day po, 14 days of treatment, B6 Lep ob/ob mice), the “Triglicerides, whole blood levels (mg/dl)” value is 67.5 (N.S.) mg/dl. In addition, the “triglicerides blood levels (result in words)” value is reported as “inhibitor of high blood levels of triglicerides” in the experiment with male mice B6 Lep ob/ob and “improved the triglicerides blood levels” in the experiment on male mice B6 Lep ob/ob (listed as Example 8). The Relative levels in the experiment with male mice B6 Lep ob/ob (triglicerides relative to Group I (standard diet, 100%), High Fat diet, 30 mg/kg/day po, 14 days) was found to be 110.6%.
`O=C(NN1CCCCC1)C1=NN(c2ccc(Cl)cc2Cl)C(c2ccc(Cl)cc2)C1` (stereo not shown) [Example 1, N-piperidinyl-5-(4-chlorophenyl)-1-(2,4-dichlorophenyl)-4,5-dihydro-1H-pyrazole-3-carboxamide]: the Ki is over 1 µM at CB2-Receptor and under 0.025 µM at CB1-Receptor.
Consider `O=C(C1=NN(c2ccc(Cl)cc2Cl)C(c2ccc(Cl)cc2)C1)N1CCCCC1` (stereo not shown) [Example 5, [5-(4-Chloro-phenyl)-1-(2,4-dichloro-phenyl)-4,5-dihydro-1H-pyrazol-3-yl]-piperidin-1-yl-methanone], for which, at CB2-Receptor, the Ki was about 1 µM.

(Values after patent EP1743643A1, “New formulations of substituted pyrazoline compounds” (LABORATORIOS DEL DR. ESTEVE, S.A., priority 2005, dated 2007).)
